In general, IC50 refers to the concentration that gives 50% inhibition.

The values below come from paper PMC7901699, “Challenging inflammatory process at molecular, cellular and in vivo levels via some new pyrazolyl thiazolones” (Journal of Enzyme Inhibition and Medicinal Chemistry, 2021).

SMILES strings stand for the structures. “Also recorded” adds a separate entry of the source. Where two headings read alike, the source gives them in different places.

Data set [1] deals with T1, 15-LOX (Glycine max, UniProt P08170).
T1 construct: purchased Cayman chemicals 760700
T1 sequence (P08170 1-839): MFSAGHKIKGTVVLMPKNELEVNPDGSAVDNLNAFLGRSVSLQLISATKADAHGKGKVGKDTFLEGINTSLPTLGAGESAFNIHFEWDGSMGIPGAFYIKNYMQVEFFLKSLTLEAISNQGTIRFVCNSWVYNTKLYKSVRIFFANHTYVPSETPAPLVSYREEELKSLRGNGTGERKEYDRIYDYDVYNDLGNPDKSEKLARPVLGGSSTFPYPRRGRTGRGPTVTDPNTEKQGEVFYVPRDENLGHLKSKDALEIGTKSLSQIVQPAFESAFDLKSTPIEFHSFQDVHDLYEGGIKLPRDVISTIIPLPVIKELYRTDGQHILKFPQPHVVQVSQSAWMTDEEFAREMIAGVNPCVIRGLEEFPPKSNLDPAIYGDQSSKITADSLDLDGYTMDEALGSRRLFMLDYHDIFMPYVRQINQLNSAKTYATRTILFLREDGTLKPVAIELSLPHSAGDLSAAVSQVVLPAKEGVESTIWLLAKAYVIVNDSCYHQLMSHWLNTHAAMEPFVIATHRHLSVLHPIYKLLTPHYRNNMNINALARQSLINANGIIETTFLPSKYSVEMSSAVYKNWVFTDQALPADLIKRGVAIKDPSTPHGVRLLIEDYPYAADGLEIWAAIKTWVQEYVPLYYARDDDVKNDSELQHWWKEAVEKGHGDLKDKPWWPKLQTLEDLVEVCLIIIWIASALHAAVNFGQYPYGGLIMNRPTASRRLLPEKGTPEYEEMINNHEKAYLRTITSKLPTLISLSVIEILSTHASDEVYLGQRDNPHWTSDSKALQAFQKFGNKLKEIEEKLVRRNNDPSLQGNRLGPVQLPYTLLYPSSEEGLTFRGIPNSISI
The experiment in a line: In vitro 15-LOX inhibition assay (lipoxygenase inhibitor screening kit, Cayman). The format is biochemical. The following applies: mean of three determinations. On the procedure: (§1) Both assays were carried out in compliance with the manufacturer’s instructions and in accordance to prior studies[29]^,[33].
(§2) IC50 values (μM) and selectivity indices (SI) were calculated.

The target of data set [2] is T2, ovine COX-1 (Ovis aries, UniProt P05979).
T2 construct: purchased Cayman Chemicals Inc. 560131
T2 sequence (P05979 25-600): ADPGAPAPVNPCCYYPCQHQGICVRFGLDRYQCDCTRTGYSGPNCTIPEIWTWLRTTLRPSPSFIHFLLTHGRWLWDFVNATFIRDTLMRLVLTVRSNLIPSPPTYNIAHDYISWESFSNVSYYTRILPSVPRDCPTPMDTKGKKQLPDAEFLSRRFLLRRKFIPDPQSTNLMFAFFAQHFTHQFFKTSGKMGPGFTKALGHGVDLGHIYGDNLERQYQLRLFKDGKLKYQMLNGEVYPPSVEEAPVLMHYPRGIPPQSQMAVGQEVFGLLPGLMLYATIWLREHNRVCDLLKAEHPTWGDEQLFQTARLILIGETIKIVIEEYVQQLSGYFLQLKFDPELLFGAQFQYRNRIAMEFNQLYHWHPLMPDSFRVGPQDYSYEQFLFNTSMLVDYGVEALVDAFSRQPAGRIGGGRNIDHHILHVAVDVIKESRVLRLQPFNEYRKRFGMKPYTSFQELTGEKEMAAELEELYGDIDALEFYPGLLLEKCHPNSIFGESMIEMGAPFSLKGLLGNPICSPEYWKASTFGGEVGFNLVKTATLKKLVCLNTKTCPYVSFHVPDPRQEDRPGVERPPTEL
The experiment in a line: In vitro COX-1 inhibition assay (colorimetric COX inhibitor screening kit, Cayman). In kind it is biochemical. The following applies: mean of three determinations. Here is the method:
as §1, §2

The target in data set [3] is T3, human recombinant COX-2 (Homo sapiens, UniProt P35354).
T3 construct: purchased Cayman Chemicals Inc. 560131
T3 sequence (P35354 18-604): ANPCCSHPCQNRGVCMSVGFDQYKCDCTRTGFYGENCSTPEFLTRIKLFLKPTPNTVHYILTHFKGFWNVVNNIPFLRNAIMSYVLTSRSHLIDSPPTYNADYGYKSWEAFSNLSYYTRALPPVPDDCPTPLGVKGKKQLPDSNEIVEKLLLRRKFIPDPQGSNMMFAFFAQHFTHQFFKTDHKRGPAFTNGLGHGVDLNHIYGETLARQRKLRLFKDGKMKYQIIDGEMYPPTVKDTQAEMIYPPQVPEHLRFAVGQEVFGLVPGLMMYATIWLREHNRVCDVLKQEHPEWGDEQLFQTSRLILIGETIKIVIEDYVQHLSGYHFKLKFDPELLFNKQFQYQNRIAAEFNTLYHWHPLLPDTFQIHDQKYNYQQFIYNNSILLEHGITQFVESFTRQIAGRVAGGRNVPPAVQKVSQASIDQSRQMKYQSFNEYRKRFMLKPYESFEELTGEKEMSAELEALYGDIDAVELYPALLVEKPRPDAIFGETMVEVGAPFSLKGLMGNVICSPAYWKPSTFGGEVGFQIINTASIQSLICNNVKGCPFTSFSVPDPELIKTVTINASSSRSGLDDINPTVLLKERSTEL
The experiment in a line: In vitro COX-2 inhibition assay (colorimetric COX inhibitor screening kit, Cayman). The format is biochemical. The following applies: for SI (COX-1/ COX-2): IC50 (COX-1)/IC50 (COX-2); for IC50: mean of three determinations. On the procedure: as §1, §2

In data set [4] the test system is THP-1 cells. The experiment in a line: Monocyte-to-macrophage differentiation assay, M1 polarisation (PMA then LPS). The format is cell-based, human. As to conditions: for IC50: Homo sapiens, THP-1, 6 h pre-incubation, PMA 25 nM 24 h then LPS 100 ng/ml 72 h, MTS, read-out: IC50 inhibition of THP-1 monocyte differentiation into M1 macrophages. Here is the method:
(§3) Monocytes were cultured and differentiated as described previously. THP-1 cells (human acute monocytic leukaemia lineage, American Type Culture Collection, Manassas, VA) were seeded at a density of 20 × 10^5 cells/ml. A set of cells were exposed to 25 nM of phorbol myristate-acetate (PMA, Calbiochem, Darmstadt, Germany) for 24 h to drive differentiation. Another set was similarly treated with PMA followed by 100 ng/ml of lipopolysaccharide (LPS, invivogen, San Diego, CA, USA) for 72 h. After incubation, the supernatant was aspirated and the density of the adherent cells was estimated using MTS colorimetric cell viability kit (Abcam, Cambridge, UK). The inhibitory actions of different compounds on the differentiation process were evaluated by pre-incubation with different concentrations of each compound for 6 h. Cell viability after treatment was normalised to the reading after PMA exposure following a 6-h incubation with DMSO. All experiments were conducted in triplicates. A positive control for the effect of COX1/COX2 inhibition on monocyte-to-macrophage differentiation was obtained by treatment with diclofenac. IC50 values for each compound were determined by non-linear regression as the best fit values of the log [inhibitor] vs. response curve using GraphPad Prism software.

For data set [5], the system named is PMA/LPS-stimulated THP-1 (M1 macrophages). The experiment in a line: Cytotoxicity assay on differentiated M1 macrophages (MTS). The format is cell-based, human. The following applies: PMA 24 h, LPS 24 h, then compound 24 h; up to 100 μM. On the procedure:
To confirm that the previous observations were a consequence of interference of the compounds with the differentiation process rather than a reduction in monocyte viability, THP-1 monocytes were incubated with different concentrations of the compound for 30 h. No difference in cell viability was detected. Moreover, the cytotoxic effects of the drugs on differentiated macrophages were evaluated. Following the incubation of THP-1 cells with 25 nM PMA for 24 h and 100 ng/ml LPS for 24 h, the differentiated macrophages were treated with different concentrations of the compounds for 24 h. Cell viability was assessed using MTS colorimetric cell viability kit (Abcam, Cambridge, UK).

Data set [6] deals with IL-1β. The experiment in a line: IL-1β protein expression by Western blotting. The format is cell-based, human. As to conditions: 100 μM compound; PMA 24 h then LPS 72 h; normalised to GAPDH. Here is the method: THP-1 monocytes were exposed to 100 μM of the test compounds, activated with 25 nM PMA for 24 h followed by 100 ng/ml LPS for 72 h. At the end of the incubation period, cells were harvested, proteins were extracted and SDS-PAGE electrophoresis, blotting, and antibody probing were conducted as described previously. Primary rabbit polyclonal antibodies to IL-1β, procaspase-3, and GAPDH were obtained from Abcam (Cambridge, UK). Clarity Western ECL substrate (BioRad, Hercules, CA, USA) was used to obtain a chemiluminescence signal captured by a Chemidoc imaging system (BioRad, Hercules, CA, USA). Band density was estimated using ImageJ software (National Institutes of Health, Bethesda, MD) and normalised to the GAPDH band density as a loading control.

Data set [7] concerns rat stomach. The experiment in a line: Gastric ulcerogenic activity and histopathological examination. As to conditions: stomach removed on 8th day of administration, 5 mg/kg oral.
In data set [8] the test system is rat stomach. As to conditions: in vivo, po, 5 mg/kg.
The test system of data set [9] is THP-1 cells. The experiment in a line: Monocyte-to-macrophage differentiation assay, resting M0 macrophages (PMA only). In kind it is cell-based, human. The following applies: data not shown. Here is the method: as §3
In data set [10] the test system is cotton pellet-induced granuloma. The experiment in a line: Cotton pellet-induced granuloma assay (chronic inflammation model). The following applies: oral 5 mg/kg daily; pellets excised on 8th day; vs diclofenac sodium and celecoxib; 5 mg/kg.

For `O=C1N=C(N2CCOCC2)S/C1=C\c1cn(-c2ccccc2)nc1-c1ccccc1` [Compound 4, (Z)-5-((1,3-diphenyl-1H-pyrazol-4-yl)methylene)-2-morpholinothiazol-4(5H)-one], the IC50 came out at 4.63 µM in data set [1], 11.3 µM in data set [2], 0.14 µM in [3] and 11.3 µM in [4]. For the same molecule, in data set [3], the “SI (COX-1/ COX-2)” value is listed as 80. Besides, the “Inhibition of THP-1 differentiation into M1 macrophages (in words)” value in data set [4] (PMA then LPS, diclofenac as reference) is on record as “potent inhibitory effects on monocyte-to-macrophage differentiation; also recorded: higher potency compared to diclofenac”. For the same molecule, in data set [5], the “M1 macrophage cell viability” value is “tended to slightly decrease”. Besides, the “IL-1β expression in PMA/LPS-challenged THP-1” value in [6] is “attenuating IL-1β production”. In addition, the “Gross observation of isolated rat stomachs” value (from here on “Gross observation”) in data set [7] is listed as “variable levels of hyperaemia without gross ulceration”. Besides, in data set [7] (H&E, 5 mg/kg), the “Histopathological examination of stomach gastric layers” value is “esophago-gastric inflammation; also recorded: gastro-esophageal inflammatory infiltrates”.

Take `Cc1ccc(-c2cc(C(F)(F)F)nn2-c2ccc(S(N)(=O)=O)cc2)cc1` [Celecoxib]: in data set [8], the “Gross observation” value is listed as “normal stomach texture” and the “Histopathological examination of stomach gastric layers” value is “no ulceration with normal gastro-esophageal junction”.

In the case of `O=C(O)Cc1ccccc1Nc1c(Cl)cccc1Cl` [Diclofenac Na, Diclofenac sodium, reference compound], in data set [4], the 50% inhibitory concentration (IC50) came to 101 µM. For the same molecule, the “IC50 for M0 macrophage differentiation (in words)” value in data set [9] is reported as “comparable IC50 to that observed for the M1 macrophage differentiation”. Also, the “Gross observation” value in data set [7] is “normal stomach texture”.

As to `COc1ccc(-c2nn(-c3ccccc3)cc2/C=C2\SC(N3CCOCC3)=NC2=O)cc1` [Compound 8, (Z)-5-((3-(4-methoxyphenyl)-1-phenyl-1H-pyrazol-4-yl)methylene)-2-morpholinothiazol-4(5H)-one], the concentration for half-maximal inhibition (IC50) in data set [1] turned out to be 4.64 µM; in [2], 12.4 µM; in [3], 0.11 µM; in data set [4], 347 µM. Also, the “SI (COX-1/ COX-2)” value in [3] is 113. Moreover, in data set [6], the “IL-1β expression in PMA/LPS-challenged THP-1” value is reported as “attenuating IL-1β production”. Moreover, the “Inhibition of cotton pellet granuloma weight (in words)” value in data set [10] is “superior anti-inflammatory activity, when compared to diclofenac and celecoxib; also recorded: increased inhibition of granuloma weight in comparison to both celecoxib and diclofenac”.
